Experimental findings from ChEMBL document CHEMBL1255314, “Outbreak of Acinetobacter baumannii with chromosomally encoded VIM-1 undetectable by imipenem-EDTA synergy tests” (2008) are described below.

Converted amounts (≈) assume the structure as drawn. A value given as a limit tells only on which side of the number the result lay.

A word on the MIC: it is the lowest concentration found to suppress growth. Broadly, the inhibition is the share of the control response that was lost under treatment.

One test concerns Acinetobacter baumannii. In words: Antimicrobial activity against Acinetobacter baumannii isolates by agar dilution method. The format is functional.
In test [1] the target is BlaVIM-1 (Escherichia coli) (UniProt Q8GDC1). Briefly: Inhibition of VIM-1 activity in Escherichia coli extracts at 100 uM.
For test [2], the target named is Metallo-beta-lactamase (Acinetobacter baumannii) (UniProt Q4F6N3). In words: Activity of Acinetobacter baumannii VIM-1 assessed as compound hydrolysis.
For test [3] the target is unchanged. Briefly: Activity of Acinetobacter baumannii isolate TZ42/166 VIM-1 assessed as compound hydrolysis.
The target is the same in test [4]. In words: Activity of Acinetobacter baumannii isolate TZ42/166 VIM-1 assessed as compound hydrolysis in presence of EDTA.

`C[C@H]1[C@H](NC(=O)/C(=N\OC(C)(C)C(=O)O)c2csc(N)n2)C(=O)N1S(=O)(=O)O` [AZTREONAM] came in with an MIC against Acinetobacter baumannii above 64 µg/mL.

As for `CO/N=C(\C(=O)N[C@@H]1C(=O)N2C(C(=O)[O-])=C(C[N+]3(C)CCCC3)CS[C@H]12)c1csc(N)n1` [CEFEPIME], the MIC in the test with Acinetobacter baumannii was above 64 µg/mL.

On to `CO/N=C(\C(=O)N[C@@H]1C(=O)N2C(C(=O)O)=C(COC(C)=O)CS[C@H]12)c1csc(N)n1` [CEFOTAXIME], for which, in the test on Acinetobacter baumannii, the MIC is above 64 µg/mL.

With `CC(C)(O/N=C(\C(=O)N[C@@H]1C(=O)N2C(C(=O)[O-])=C(C[n+]3ccccc3)CS[C@H]12)c1csc(N)n1)C(=O)O` [CEFTAZIDIME], the MIC with Acinetobacter baumannii was above 64 µg/mL.

In turn, `C[C@@H](O)[C@H]1C(=O)N2C(C(=O)O)=C(SCCNC=N)C[C@H]12` [IMIPENEM ANHYDROUS] had an inhibition in test [1] above 95%. For the same molecule, the MIC with Acinetobacter baumannii was determined as 16 µg/mL (≈ 53.4 µM). Moreover, the Activity in test [2] stood at 28 U; in test [3], 90 U; in test [4], 1.5 U.

As for `C[C@@H](O)[C@H]1C(=O)N2C(C(=O)O)=C(S[C@@H]3CN[C@H](C(=O)N(C)C)C3)[C@H](C)[C@H]12` [MEROPENEM], the MIC in the test with Acinetobacter baumannii came to 16 µg/mL (≈ 41.7 µM).
